# Test results as given in publication PMC9643456, “Matching amino acids membrane preference profile to improve activity of antimicrobial peptides” (Communications Biology, 2022).
# Assays:
# human red blood cells = assay: Hemolytic activity; assay type: cell-based; details: 8% human red blood cells in PBS (final 4%), 18 h 37 °C, absorbance 540 nm, 1% Triton X-100 = 100%, triplicate
# Method in brief: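 Haemolysis was read as A540 of cleared supernatants after 18 h at 37 °C, with 0% and 100% lysis set by peptide-free PBS and 1% Triton X-100 and melittin as positive control. Human RBCs were at 4% final, peptide serially diluted 100–0.78 μM; three replicates.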
# A. baumannii strains = assay: microbe, parasite or virus in culture
# E. aerogenes NCCP 16285 = assay: microbe, parasite or virus in culture; details: MIC test, 5 x 10^5 cfu/ml, CAMHB
# Protocol: To assess antimicrobial activity, the MIC50 and MIC90 were measured using broth microdilution following CLSI guidelines. […] Each experiment was performed in triplicate. Meropenem (Sigma, Darmstadt, Germany) and colistin were used as control antibiotics. Cation-adjusted Mueller–Hinton broth (CAMHB) (Becton, Dickinson and Company, Franklin Lakes, USA) with supplied calcium (50 mg/L) and magnesium (10 mg/L) was used for the CLSI-test condition. Bacteria in midlog phase and peptides were separately diluted in CAMHB. The bacteria and peptide solutions were then mixed in 96-well polyethylene plates (SPL, Gyeonggi-do, Korea) and incubated for 18 h at 37 °C. The final concentration for bacteria was 5 × 10^5 CFU/ml. […] The MIC was defined to be the lowest concentration of peptide without visible turbidity by comparing with control antibiotics with the unaided eye. […] Each experiment was performed in triplicate. MICs in albumin and acetic acid solutions were measured using the same protocol but with 0.2% bovine serum albumin (Bovogen, Keilor, Australia), 0.01% acetic acid (Merck, New Jersey, USA), and CAMHB with both calcium and magnesium. In addition, MICs used in the antibiotic resistance acquisition test, the outer–inner membrane permeation test, and the transmembrane potential test and for FE-SEM were individually determined. The final bacterial concentrations used were as follows: for resistance acquisition, optical density (OD) 0.01; for outer–inner membrane permeability assays (LB), OD 0.1; for the transmembrane potential test, 1 × 10^8 CFU/ml (OD 0.171); […]. Inhibitory activity unidentifiable by direct observation was determined by counting the CFUs. Each experiment was performed at least twice.
substance,measurement,setting,value
Colistin,"Hemolysis percent, 25 μM",human red blood cells; peptide 25 μM,0.24 ±0.09%
same,"Hemolysis percent, 50 μM",human red blood cells; peptide 50 μM,0.31%
same,"Hemolysis percent, 100 μM",human red blood cells; peptide 100 μM,0.39 ±0.06%
same,MIC50,"A. baumannii strains; 30 A. baumannii strains, including 27 carbapenem-resistant, CLSI broth microdilution",0.63 µM
same,"MIC, A. baumannii ATCC 17978",A. baumannii strains; CLSI,0.63 µM
same,"MIC, A. baumannii ATCC BBA 1605",A. baumannii strains; CLSI,0.63 µM
same,"MIC, A. baumannii Isolated strain 1",A. baumannii strains; CLSI,0.63 µM
same,"MIC, A. baumannii Isolated strain 3",A. baumannii strains; CLSI,> 20 µM
same,"MIC, A. baumannii Isolated strain 6",A. baumannii strains; CLSI,2.5 µM
same,"MIC, A. baumannii Isolated strain 10",A. baumannii strains; CLSI,2.5 µM
same,"MIC, A. baumannii Isolated strain 14",A. baumannii strains; CLSI,1.25 µM
same,"MIC, A. baumannii Isolated strain 15",A. baumannii strains; CLSI,0.63 µM
same,"MIC, A. baumannii Isolated strain 16",A. baumannii strains; CLSI,< 0.31 µM
same,"MIC, A. baumannii Isolated strain 19",A. baumannii strains; CLSI,< 0.31 µM
same,"MIC, A. baumannii Isolated strain 22",A. baumannii strains; CLSI,1.25 µM
same,"MIC, A. baumannii Isolated strain 39",A. baumannii strains; CLSI,< 0.31 µM
same,"MIC, A. baumannii Isolated strain 44",A. baumannii strains; CLSI,1.25 µM
same,"MIC, A. baumannii Isolated strain 66",A. baumannii strains; CLSI,1.25 µM
same,"MIC, A. baumannii Isolated strain 68",A. baumannii strains; CLSI,0.63 µM
same,"MIC, A. baumannii Isolated strain 69",A. baumannii strains; CLSI,1.25 µM
same,"MIC, A. baumannii Isolated strain 71",A. baumannii strains; CLSI,1.25 µM
same,"MIC, A. baumannii Isolated strain 76",A. baumannii strains; CLSI,< 0.31 µM
same,"MIC, A. baumannii Isolated strain 80",A. baumannii strains; CLSI,0.63 µM
same,"MIC, A. baumannii Isolated strain 82",A. baumannii strains; CLSI,0.63 µM
same,"MIC, A. baumannii Isolated strain 86",A. baumannii strains; CLSI,0.63 µM
same,"MIC, A. baumannii Isolated strain 89",A. baumannii strains; CLSI,2.5 µM
same,"MIC, A. baumannii Isolated strain 102",A. baumannii strains; CLSI,0.63 µM
same,"MIC, A. baumannii Isolated strain 127",A. baumannii strains; CLSI,0.63 µM
same,"MIC, A. baumannii Isolated strain 141",A. baumannii strains; CLSI,< 0.31 µM
same,"MIC, A. baumannii Isolated strain 144",A. baumannii strains; CLSI,0.63 µM
same,"MIC, A. baumannii Isolated strain 147",A. baumannii strains; CLSI,5 µM
same,"MIC, A. baumannii Isolated strain 152",A. baumannii strains; CLSI,1.25 µM
same,"MIC, A. baumannii KCCM 40203",A. baumannii strains; CLSI,0.63 µM
same,"MIC, A. baumannii NCCP 14654",A. baumannii strains; CLSI,1.25 µM
same,Number of A. baumannii strains at MIC (μM) 0.63,A. baumannii strains; of 30 strains,12
same,Number of A. baumannii strains at MIC (μM) 1.25,A. baumannii strains; of 30 strains,8
same,Number of A. baumannii strains at MIC (μM) 2.5,A. baumannii strains; of 30 strains,3
same,Number of A. baumannii strains at MIC (μM) 5,A. baumannii strains; of 30 strains,1
same,Number of A. baumannii strains at MIC (μM) 10,A. baumannii strains; of 30 strains,0
same,Number of A. baumannii strains at MIC (μM) ≤0.31,A. baumannii strains; of 30 strains,5
same,Number of A. baumannii strains at MIC (μM) ≥20,A. baumannii strains; of 30 strains,1
same,"MIC, E. aerogenes NCCP 16285",E. aerogenes NCCP 16285,> 5 µM
